Measurements from patent US8754069B2, “Betulinic acid derivatives with antiviral activity” (priority 2011, dated 2014).

System: recombinant NL4-3 virus (NLRluc, Renilla luciferase in nef, Gag P373S) in MT-2 cells
Assay: HIV Cell Culture Assay (luciferase reporter virus in MT-2 cells)
Assay type: cell-based
Details: NL43, 96 h, read-out: 10% FBS (EC50, uM)
Description: HIV Cell Culture Assay—MT-2 cells and 293T cells were obtained from the NIH AIDS Research and Reference Reagent Program. MT-2 cells were propagated in RPMI 1640 media supplemented with 10% heat inactivated fetal bovine serum, […]. The 293T cells were propagated in DMEM media supplemented with 10% heat inactivated fetal bovine serum (FBS), 100 units/ml penicillin G and 100 μg/ml streptomycin. The proviral DNA clone of NL4-3 was obtained from the NIH AIDS Research and Reference Reagent Program. A recombinant NL4-3 virus, in which a section of the nef gene from NL4-3 was replaced with the Renilla luciferase gene, was used as a reference virus. In addition, residue Gag P373 was converted to P373S. Briefly, the recombinant virus was prepared by transfection of the altered proviral clone of NL4-3. Transfections were performed in 293T cells using LipofectAMINE PLUS from Invitrogen (Carlsbad, Calif.), according to manufacturer's instruction. The virus was titered in MT-2 cells using luciferase enzyme activity as a marker. Luciferase was quantitated using the Dual Luciferase kit from Promega (Madison, Wis.), with modifications to the manufacturer's protocol. The diluted Passive Lysis solution was pre-mixed with the re-suspended Luciferase Assay Reagent and the re-suspended Stop & Glo Substrate (2:1:1 ratio). Fifty (50) μL of the mixture was added to each aspirated well on assay plates and luciferase activity was measured immediately on a Wallac TriLux (Perkin-Elmer). Antiviral activities of inhibitors toward the recombinant virus were quantified by measuring luciferase activity in cells infected for 4-days with NLRluc recombinants in the presence serial dilutions of the inhibitor. Table 1 is the key for the data in Table 2. Results

SMILES	EC50 [µM]
C=C(C)[C@@H]1CC[C@]2(NCCN(C)C)CC[C@]3(C)[C@H](CC[C@@H]4[C@@]5(C)CC[C@H](OC(=O)CC(C)(C)C(=O)O)C(C)(C)[C@@H]5CC[C@]43C)[C@@H]12 [Example 10, 4-(((1R,3aS,5aR,5bR,7aR,9S,11aR,13aR,13bR)-3a-((2-(dimethylamino)ethyl)amino)-5a,5b,8,8,11a-pentamethyl-1-(prop-1-en-2-yl)icosahydro-1H-cyclopenta[a]chrysen-9-yl)oxy)-2,2-dimethyl-4-oxobutanoic acid]	< 0.1
C=C(C)[C@@H]1CC[C@]2(NCCN3CCC(S(C)(=O)=O)CC3)CC[C@]3(C)[C@H](CCC4[C@@]5(C)CC[C@H](OC(=O)CC(C)(C)C(=O)O)C(C)(C)[C@@H]5CC[C@]43C)[C@@H]12 (stereo partly drawn) [Example 9, 2,2-dimethyl-4-oxo-4-(((1R,3aS,5aR,5bR,7aR,9S,11aR,13aR,13bR)-5a,5b,8,8,11a-pentamethyl-3a-((2-(4-(methylsulfonyl)piperidin-1-yl)ethyl)amino)-1-(prop-1-en-2-yl)icosahydro-1H-cyclopenta[a]chrysen-9-yl)oxy)butanoic acid]	< 0.1
CC(C)[C@@H]1CC[C@]2(NCCN3CCS(=O)(=O)CC3)CC[C@]3(C)[C@H](CC[C@@H]4[C@@]5(C)CC[C@H](OC(=O)CC(C)(C)CC(=O)O)C(C)(C)[C@@H]5CC[C@]43C)[C@@H]12 [Example 7, 5-(((1S,3aS,5aR,5bR,7aR,9aR,9S,11aR,3aR,13bR)-3a-((2-(1,1-dioxido-4-thiomorpholinyl)ethyl)amino)-1-isopropyl-5a,5b,8,8,11a-pentamethylicosahydro-1H-cyclopenta[a]chrysen-9-yl)oxy)-3,3-dimethyl-5-oxopentanoic acid]	< 0.1
C=C(C)[C@@H]1CC[C@]2(NCCN3CCC(S(C)(=O)=O)CC3)CC[C@]3(C)[C@H](CC[C@@H]4[C@@]5(C)CC[C@H](OC(=O)C(C)(C)CC(=O)O)C(C)(C)[C@@H]5CC[C@]43C)[C@@H]12 [Example 8, 3,3-dimethyl-4-oxo-4-(((1R,3aS,5aR,5bR,7aR,9S,11aR,13aR,13bR)-5a,5b,8,8,11a-pentamethyl-3a-((2-(4-(methylsulfonyl)piperidin-1-yl)ethyl)amino)-1-(prop-1-en-2-yl)icosahydro-1H-cyclopenta[a]chrysen-9-yl)oxy)butanoic acid]	< 0.1
C=C(C)[C@@H]1CC[C@]2(NCCN3CCS(=O)(=O)CC3)CC[C@]3(C)[C@H](CC[C@@H]4[C@@]5(C)CC[C@H](OC(=O)CC(C)(C)CC(=O)O)C(C)(C)[C@@H]5CC[C@]43C)[C@@H]12 [Example 3, 5-(((1R,3aS,5aR,5bR,7aR,9aR,9S,11aR,3aR,13bR)-3a-((2-(1,1-dioxido-4-thiomorpholinyl)ethyl)amino)-1-isopropenyl-5a,5b,8,8,11a-pentamethylicosahydro-1H-cyclopenta[a]chrysen-9-yl)oxy)-3,3-dimethyl-5-oxopentanoic acid]	< 0.1
C=C(C)[C@@H]1CC[C@]2(NCCN3CCOCC3)CC[C@]3(C)[C@H](CC[C@@H]4[C@@]5(C)CC[C@H](OC(=O)C(C)(C)CC(=O)O)C(C)(C)[C@@H]5CC[C@]43C)[C@@H]12 [Example 4, 3,3-dimethyl-4-oxo-4-((1R,3aS,5aR,5bR,7aR,9S,11aR,13aR,13bR)-5a,5b,8,8,11a-pentamethyl-3a-(2-morpholinoethylamino)-1-(prop-1-en-2-yl)icosahydro-1H-cyclopenta[a]chrysen-9-yloxy)butanoic acid]	< 0.1
C=C(C)[C@@H]1CC[C@]2(NCCN3CCN(S(C)(=O)=O)CC3)CC[C@]3(C)[C@H](CC[C@@H]4[C@@]5(C)CC[C@H](OC(=O)CC(C)(C)C(=O)O)C(C)(C)[C@@H]5CC[C@]43C)[C@@H]12 [Example 11, 2,2-dimethyl-4-oxo-4-(((1R,3aS,5aR,5bR,7aR,9S,11aR,11bR,13aR,13bR)-5a,5b,8,8,11a-pentamethyl-3a-((2-(4-(methylsulfonyl)piperazin-1-yl)ethyl)amino)-1-(prop-1-en-2-yl)icosahydro-1H-cyclopenta[a]chrysen-9-yl)oxy)butanoic acid]	< 0.1
C=C(C)[C@@H]1CC[C@]2(NCCN3CCOCC3)CC[C@]3(C)[C@H](CC[C@@H]4[C@@]5(C)CC[C@H](OC(=O)CC(C)(C)C(=O)O)C(C)(C)[C@@H]5CC[C@]43C)[C@@H]12 [Example 5, 2,2-dimethyl-4-oxo-4-((1R,3aS,5aR,5bR,7aR,9S,11aR,13aR,13bR)-5a,5b,8,8,11a-pentamethyl-3a-(2-morpholinoethylamino)-1-(prop-1-en-2-yl)icosahydro-1H-cyclopenta[a]chrysen-9-yloxy)butanoic acid]	< 0.1
CC(C)[C@@H]1CC[C@]2(NCCN3CCS(=O)(=O)CC3)CC[C@]3(C)[C@H](CC[C@@H]4[C@@]5(C)CC[C@H](OC(=O)CC(C)(C)C(=O)O)C(C)(C)[C@@H]5CC[C@]43C)[C@@H]12 [Example 6, 4-(((1S,3aS,5aR,5bR,7aR,9S,11aR,13aR,13bR)-3a-((2-(1,1-dioxido-4-thiomorpholinyl)ethyl)amino)-1-isopropyl-5a,5b,8,8,11a-pentamethylicosahydro-1H-cyclopenta[a]chrysen-9-yl)oxy)-2,2-dimethyl-4-oxobutanoic acid]	< 0.1
C=C(C)[C@@H]1CC[C@]2(NCCN3CCS(=O)(=O)CC3)CC[C@]3(C)[C@H](CC[C@@H]4[C@@]5(C)CC[C@H](OC(=O)C(C)(C)CC(=O)O)C(C)(C)[C@@H]5CC[C@]43C)[C@@H]12 [Example 1, 4-(((1R,3aS,5aR,5bR,7aR,9S,11aR,13aR,13bR)-3a-((2-(1,1-dioxido-4-thiomorpholinyl)ethyl)amino)-1-isopropenyl-5a,5b,8,8,11a-pentamethylicosahydro-1H-cyclopenta[a]chrysen-9-yl)oxy)-3,3-dimethyl-4-oxobutanoic acid]	< 0.1
C=C(C)[C@@H]1CC[C@]2(NCCN3CCS(=O)(=O)CC3)CC[C@]3(C)[C@H](CC[C@@H]4[C@@]5(C)CC[C@H](OC(=O)CC(C)(C)C(=O)O)C(C)(C)[C@@H]5CC[C@]43C)[C@@H]12 [Example 2, 4-(((1R,3aS,5aR,5bR,7aR,9S,11aR,13aR,13bR)-3a-((2-(1,1-dioxido-4-thiomorpholinyl)ethyl)amino)-1-isopropenyl-5a,5b,8,8,11a-pentamethylicosahydro-1H-cyclopenta[a]chrysen-9-yl)oxy)-2,2-dimethyl-4-oxobutanoic acid]	< 0.1
